Where no end group is shown, it is not given here.
Key:
[1] = Barrier effect against metals
[2] = Direct peptide reaction assay (DPRA) with urushiols, Ellman's reagent, 24 h; conditions: FIG. 9; urushiol structures I-V, 24 h reaction, n=3
Procedure: The reaction courses shown in FIGS. 8 and 9 were determined colorimetrically through the reaction of the peptide with Ellmann's reagent in a photometer. In this reaction, DTNB ((5,5′-dithiobis-2-nitrobenzoic acid, Ellmann's reagent) is cleaved and attached to the SH residue of the amino acid cysteine of the peptides of the invention (Ac-RFAACAA, RFAACAA).
The SH radical is at the same time the reactive binding site of the peptide with the allergens. The color reaction with DTNB (color change from colorless to yellow) competes with the allergen reaction. This means that the better the allergen reacts with the peptide, the less peptide remains available for the reaction with the detection reagent, i.e. the less the resulting yellow coloration.
The control is the peptide in the buffer system without allergen, i.e. instead of allergen only its solvent (ethanol) is added.
Urushiols of the structure below were used.
The investigated urushiols differ in the saturation in the side chain R.
Urushiols where R═C15 singly (C15:1), doubly (C15:2) or triply (C15:3) unsaturated were investigated.

[3] = system: Phenion FTS full skin models; test: Cytokine release (IL8, IL6) in supernatants of Phenion FTS full skin models, Bio-Plex multiplex immunoassay; type: cell-based, human; conditions: FIGS. 2 to 4 left bar; 0.5 mM peptide without allergen
Procedure: (§1) The investigations were carried out using Phenion FTS full skin models (Phenion, Henkel). These were maintained for 3 days at 37° C. and 7% CO2 in deep-well plates having a […] pore size in the cell culture inserts. The skin models were maintained in 1.5 ml of air-liquid interface medium without phenol red. The medium was changed daily. The test substances were dissolved in ethanol and incubated at room temperature for 24 h. After culturing for 24 h, 25 μl of the substance solution was dripped onto a sterile filter paper that had previously been laid on the skin model. The barrier peptide (0.5 mM AcRFAACAA) had previously been applied to the model as a solution in 100 mM phosphate buffer (pH 7.5). Alternatively, the barrier peptide was applied in a formulation having a content of 0.25% by weight.
(§2) After culturing for a further 24 h, the models were harvested and one half embedded in OCT mounting medium (VWR Q-Path Chemicals), the other half snap-frozen in liquid nitrogen. The supernatant of each model was collected and stored at −20° C.
The supernatants were then analyzed (FIGS. 2, 3 and 4).
The supernatants of the Phenion FTS models were analyzed using the Bio-Plex Pro Human Cytokine Screening Panel (Bio-Rad) according to the manufacturer's protocol. […] The cytokine concentrations are calculated on the basis of the standard curves from the Bioplex system. […]

Phenion skin models = test: H&E staining of cryosections of Phenion skin models; type: cell-based; conditions: FIG. 5 B; 0.5 mM peptide, no allergen
Procedure: as §1, §2
In further investigations, frozen sections were thawed and incubated for 10 min in 3.7% paraformaldehyde at RT. After three PBS wash steps and one minute in distilled water, they are stained for 3 min in hematoxylin solution. […]

His His His His His His (HHHHHH; printed: His His His His His His)
barrier effect against metals and nickel in particular [1]: achieved a barrier effect

RFAACAA [Arg Phe Ala Ala Cys Ala Ala]
reactivity and thus protective activity against urushiols [2]: very high reactivity

Ac-RFAACAA [Ac-RFAACAA, acetylarginine-phenylalanine-alanine-alanine-cysteine-alanine-alanine]
skin model IL8/IL6 release with peptide on its own [3]: unchanged
skin model morphology (H&E) with peptide on its own (Phenion skin models): unchanged
